We go through one molecule from publication PMC11825904 (Nature Communications, 2025).

Structures are written as SMILES.

The test system of one test is rNsp5-L50F/E166V. Format: cell-based, SARS-CoV-2. Particulars: read-out: rNsp5-L50F/E166V EC50.
The test system of a further test is rNsp5-L50F/E166A/L167F. Format: cell-based, SARS-CoV-2. Particulars: read-out: rNsp5-L50F/E166A/L167F EC50.

As to `CC(C)(C)[C@H](NC(=O)C(F)(F)F)C(=O)N1C[C@H]2[C@@H]([C@H]1C(=O)N[C@H](C#N)C[C@@H]1CCNC1=O)C2(C)C` [Nirmatrelvir, nirmatrelvir], the figures for the EC50 in the test with rNsp5-L50F/E166V and in the test with rNsp5-L50F/E166A/L167F were > 1000 nM and 630 nM, respectively.
